Data taken from PMC9078569, “Understanding the inhibitory mechanism of tea polyphenols against tyrosinase using fluorescence spectroscopy, cyclic voltammetry, oximetry, and molecular simulations” (RSC Advances, 2018).
Like-named read-outs stand apart in the source and are kept apart here.

Legend:
[1] = test system: Tyrosinase (TYR, EC1.14.18.1) from mushroom; assay: Fluorescence quenching of tyrosinase by TPs (Stern–Volmer analysis); type: binding; conditions: for bimolecular quenching constant (κq): calculated by KSV/τ0, τ0 10^−8 s; for Stern–Volmer quenching constant (KSV): excited at 274 nm, pH 6.5; for binding constant (KA): static quenching equation
Experimental: The fluorescence spectrum of the TP-TYR complex was measured according to our previous work.[27] Briefly, 10 mM TP was titrated into 3 mL potassium phosphate buffer (pH 6.5) containing 10 units tyrosinase under continuous stirring and nitrogen exists. After 5 minutes, tyrosinase was excited at 274 nm and the emission spectrum over the range of 280 nm to 400 nm was detected through a 3 nm slit. The emission spectrum of the tyrosinase solution was also directly measured as a background.
Fluorescence quenching mechanism is usually divided into static or dynamic manner.[46] To clarify the quenching mechanism of the interaction between tyrosinase and TPs, we analyzed the fluorescence quenching data using the Stern–Volmer equation.[47]2 [drawing 2] where F0 and F are the relative fluorescence intensities before and after the addition of inhibitor, respectively; κq is the bimolecular quenching rate constant; τ0 is the fluorescence lifetime at 10^−8 s for most biological macromolecules,[48] [Q] is the concentration of inhibitor and KSV is the Stern–Volmer quenching constant. The Stern–Volmer quenching constant (KSV) determined by linear regression of a curve of F0/F versus [Q] was plotted in Fig. 2 (inset). As listed in Table 1, the KSV value of ECG with less one hydroxyl group on ring B is much higher than that of EGCG. Good linear relationships in three Stern–Volmer plots of TPs are generally the indication of a single type of quenching manner. The calculated κq values by KSV/τ0 are 0.48 × 10^12, 4.10 × 10^12 and 3.13 × 10^12 M^−1 for catechin, ECG and EGCG, respectively. […] For static quenching mechanism, the binding site number (n) and association constant (KA) can be obtained by the following equation:[49]3 [drawing 3]

[2] = target: T1, Tyrosinase (TYR, EC1.14.18.1) from mushroom (Agaricus bisporus, UniProt C7FF04); assay: Inhibition of diphenolase activity of tyrosinase with L-DOPA as substrate (spectroscopy at 475 nm; HPLC for catechin); type: biochemical
T1 construct: purchased Sigma-Aldrich
T1 sequence (C7FF04 1-392): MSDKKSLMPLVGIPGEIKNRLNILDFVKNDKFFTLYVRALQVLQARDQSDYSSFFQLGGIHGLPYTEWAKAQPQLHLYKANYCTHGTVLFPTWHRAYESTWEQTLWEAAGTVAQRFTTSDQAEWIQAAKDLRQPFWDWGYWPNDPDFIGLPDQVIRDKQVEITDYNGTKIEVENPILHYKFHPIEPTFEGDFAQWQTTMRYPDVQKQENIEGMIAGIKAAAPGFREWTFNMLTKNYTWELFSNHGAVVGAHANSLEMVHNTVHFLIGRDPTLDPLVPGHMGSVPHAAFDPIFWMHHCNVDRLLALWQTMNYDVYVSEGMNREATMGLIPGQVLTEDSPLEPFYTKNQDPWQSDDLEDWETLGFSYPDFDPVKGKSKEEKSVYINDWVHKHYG
Experimental: The inhibitory activity of the TPs, i.e., catechin, ECG, and EGCG, and a positive control, i.e., KA, against diphenolase activity of tyrosinase was measured with L-DOPA as a substrate using the reported spectroscopy method.[13,24] Assays were conducted in a 96-well micro-plate and a spectrophotometer reader was used to determine the absorbance.[25] Briefly, 6 μL of 1000 unit per mL tyrosinase solution was combined with potassium phosphate buffer (pH 6.5) and 1 mM KA or TPs (both dissolved in potassium phosphate buffer, pH 6.5). After pre-incubating at 25 °C for 5 min, 150 μL of 1 mM L-DOPA aqueous solution was added, followed by incubation at 25 °C for 10 min, again, before the concentration determination of DOPA quinone at 475 nm absorbance. The total volume of each reaction system was 300 μL. […] The inhibitory activity was expressed by IC50 value, which is equal to the concentration of inhibitor at 50% inhibitory rate according to the following equation:[25]1 [drawing 1] where, A is the optical density (OD475) of potassium phosphate buffer; B, C and D are the OD475 of potassium phosphate buffer with tyrosinase, with both TPs and tyrosinase, and with TPs, respectively.

[3] = test system: Tyrosinase (TYR, EC1.14.18.1) from mushroom; assay: Oximetry: oxygen utilization in oxidation of TPs by tyrosinase and of L-DOPA by the remaining tyrosinase; type: biochemical; conditions: for inactivation rate (k2) of tyrosinase / oxidation rate (k1): fit of oxygen utilization curve, 30 °C, pH 6.5; for partition ratio (r): molecules of inhibitor required to inactivate one molecule of tyrosinase: intercept on abscissa, ESI Fig. 3
Experimental: The oxygen consumption in the process of tyrosinase interacting with TPs was monitored with the reported method.[28] Briefly, 0.4 mL of 8.2 mM TP was added to 19.2 mL phosphate buffer (pH 6.5). After equilibrating at 30 °C for 5 min, 0.4 mL of 500 unit per ml tyrosinase was injected to TP solution under continuous stirring. The decrease of oxygen was monitored with the dissolved oxygen meter. In order to evaluate the remaining activity of tyrosinase, L-DOPA was added to the above mixture of tyrosinase and TP after 5 minutes if no oxygen decreasing was observed, followed by monitoring the secondary oxygen utilization in the oxidation reaction of L-DOPA catalyzed by the remaining tyrosinase. The concentration of L-DOPA was 194 μM.
To further reveal tyrosinase inhibitory mechanisms of TPs, we monitored oxygen utilization against time starting from the injecting of TPs into tyrosinase solution using oximetry. The corresponding time-dependent curves of oxygen utilization are depicted in Fig. 4A. In the initial stage, the increase of oxygen utilization for TPs further corroborates that TPs could be oxidized by tyrosinase like-as substrate manner. The time-dependent curves of oxygen utilization can be better fitted with the following equation:[28]4 [drawing 4] where, Ut is the oxygen consumption at time t; E0 is the initial amount of tyrosinase; k1 and k2 are the oxidation rate and the inactivation rate of tyrosinase, respectively. As listed in Table 2, ECG and catechin can inactivate tyrosinase with inactivation rate (k2) of 0.018 and 0.016, respectively, while the inactivation rate of EGCG is ∼4 times lower than catechin. […] Furthermore, the catecholase activities of residual tyrosinase were evaluated by the oxygen utilization of L-DOPA. […] The slope (K) of oxygen consumption curve is positive proportional to the amount of residual tyrosinase.[64] Obviously, the remaining quantity of tyrosinase for EGCG is largest, while the residual amount is least for ECG. […] In this inactivation pathway, the catechol is converted to an intermediate by deprotonation and reductive elimination along with the leaving of forming Cu(0) from catalytic center, leading to the irreversible inactivation of tyrosinase.[28] However, the oxidation of ring B on EGCG or ring G on both ECG and EGCG (the pyrogallol group) catalyzed by tyrosinase should be competitive with the natural substrate (such as L-DOPA) through the diphenolase-like catalytic pathway (as shown in Fig. 5), because the three adjacent hydroxyl groups on the pyrogallol group having larger steric hindrance and worse orientation were unfavorable to the insert of additional oxygen on the aromatic ring.[28] Tyrosinase at last can be reactivated after catalyzing the oxidation of two molecules of EGCG, accounting for the lower inhibitory activity of EGCG than ECG and catechin. […] As shown in ESI Fig. 3 ^† (the intercept on abscissa), inactivating one molecule of tyrosinase requires 14.7 molecules of ECG or 38.7 molecules of catechin, being better consistent with their inactivation rate. The lower inactivation efficiency against tyrosinase explained that catechin has weaker inhibitory activity than ECG.

[4] = diphenolase activity, L-DOPA substrate, pH 6.5, 25 °C, read-out: IC50

| Structure (SMILES) | association constant (KA) [1] | bimolecular quenching constant (κq) [1] [M⁻¹ s⁻¹] | Stern–Volmer quenching constant (KSV) [1] [M⁻¹] | binding constant (KA) [1] | IC50 [2, 4] [µM] | inactivation rate (k2) of tyrosinase [3] | oxidation rate (k1) [3] | partition ratio (r): molecules of inhibitor required to inactivate one molecule of tyrosinase [3] [molecules] | IC50 [2] [µM] | tyrosinase inhibitory activity, fold stronger than that of EGCG ([2]; by IC50 values) [fold] | inactivation rate, times lower than catechin [3] [times] | slope (K) of the residual tyrosinase oxidizing L-DOPA substrate ([3]; oxygen utilization, 194 μM L-DOPA added after TP) |
| --- | --- | --- | --- | --- | --- | --- | --- | --- | --- | --- | --- | --- |
| Oc1cc(O)c2c(c1)OC(c1ccc(O)c(O)c1)C(O)C2 (single isomer, unassigned; (+)) [Catechin, (+)-catechin] | 0.04 × 10^5 | 4.8e+11 | 4800 | 0.04 ×10^5 | 57.1 | 0.016 | 0.063 | 38.7 |  |  |  |  |
| O=C(OC1Cc2c(O)cc(O)cc2OC1c1ccc(O)c(O)c1)c1cc(O)c(O)c(O)c1 (single isomer, unassigned; (-)) [ECG, (−)-epicatechin gallate] | 0.53 × 10^5 | 4.1e+12 | 41000 | 0.53 ×10^5 |  | 0.018 | 0.068 | 14.7 | 22.6 | 6 |  |  |
| O=C(OC1Cc2c(O)cc(O)cc2OC1c1cc(O)c(O)c(O)c1)c1cc(O)c(O)c(O)c1 (single isomer, unassigned; (-)) [EGCG, (−)-epigallocatechin-3-O-gallate] | 3.07 × 10^5 | 3.13e+12 | 31300 | 3.07 ×10^5 | 142 | 0.004 | 0.007 |  |  |  | ~4 | 0.39 |
